Assay: xn = mol fraction of the nth substance listed, in the solute-free solvent

Cc1c(Br)cccc1C(=O)O + CN(C)C=O + O
solubility (g/100 g solution)
Conditions	x2 = 0.039	x2 = 0.091	x2 = 0.16	x2 = 0.259	x2 = 0.411	x2 = 0.677
278.15 K	5.54	9.19	12.7	16.1	19.4	22.9
283.15 K	8.07	11.1	15.1	18.9	22.7	26.7
288.15 K	6.03	11.5	16.6	21.4	26	30.7
293.15 K	9.6	15.3	20.6	25.5	30.3	35.3
298.15 K	11.6	18.1	23.9	29.3	34.6	40.1
303.15 K	13.8	21	27.5	33.4	39.2	45.3
308.15 K	16	24.1	31.1	37.6	43.8	50.5
313.15 K	18.6	27.5	35.2	42.1	48.7	55.9
318.15 K	21.6	31.2	39.4	46.6	53.5	61.2
323.15 K	24.4	35	43.7	51.3	58.6	66.8
328.15 K	27.9	39	48.1	55.9	63.4	72

CCC(C)n1ncn(-c2ccc(N3CCN(c4ccc(OCC5COC(Cn6cncn6)(c6ccc(Cl)cc6Cl)O5)cc4)CC3)cc2)c1=O (stereo unspecified) + ClCCl + CCCO
solubility (g/100 g solution)
Conditions	x2 = 0.07363	x2 = 0.1517	x2 = 0.2346	x2 = 0.3229	x2 = 0.417	x2 = 0.5176	x2 = 0.6254	x2 = 0.741	x2 = 0.8656
288.15 K	0.0545	0.15	0.459	1.65	3.95	8.85	14.4	19.5	21.8
293.15 K	0.0662	0.199	0.602	2.05	4.66	9.92	15.7	20.8	22.9
298.15 K	0.0798	0.258	0.786	2.52	5.51	11.1	17	22	24
303.15 K	0.0965	0.332	0.996	3.08	6.4	12.3	18.3	23.3	25.1
308.15 K	0.115	0.424	1.27	3.71	7.42	13.6	19.7	24.6	26.2

Source: the CheMixHub drug solubility set
